Results on one substance are retold here after article PMC5910287 (ACS chemical biology, 2018).

For the experiment, the system named is L. lactis HP. Nature of the experiment: Minimal inhibitory concentrations determined in liquid media. The experiment is classed as cell-based, Lactococcus lactis. The following applies: serial two-fold dilution, Fig. S12.

lacticin 481 [wt-lacticin 481] gave a Minimal inhibitory concentration of 0.39 µM.
